# In patent US11685766B2, “14-3-3 targeting peptides for cancer treatment” (Creighton University, priority 2019, dated 2023):
# “Also recorded” adds a separate entry of the source. Peptide text beside a SMILES is read from it.
# Key:
# SCC12B.2 cells = test: Caspase-3/7 Glo assay (apoptosis); assay type: cell-based, human; settings: ES1P2 20 μM; pS 30 μM; pT 20 μM, 24 hours; vs vehicle
# Method: Apoptosis was assessed using a Caspase-3/7 Glo assay (Promega Corporation, Madison, Wis., USA) in a 96-well white-bottom plate (BRANDplates, Wertheim, Germany) according to the manufacturer's instructions. Cells were seeded at a density of 8×10^3 cells/well and incubated overnight before treatments or transfections. Luminescence was read using a Cytation 5 multi-mode plate reader (BioTek Instruments, Winooski, Vt., USA).
# Apoptosis was assessed using a Caspase-3/7 Glo assay (Promega) in a 96-well white-bottom plate (BRANDplates, Wertheim, Germany). Cells were seeded at a density of 8×10^3 cells/well and Caspase-3/7 glo was performed 24 hours post-treatment according to the manufacturer's instructions and read using a Cytation 5 multi-mode plate reader (BioTek, Instruments, Winooski, Vt., USA).
# [1] = test system: SCC13 cells xenograft tumors; test: Mouse SCC tumor xenografts (TUNEL, immunofluorescence, tumor growth); assay type: in vivo; settings: for tumor volume compared to vehicle-treated xenografts: mouse xenograft tumors; for P-Akt (S473) levels in SCC xenografts (immunofluorescence) / Survivin levels in SCC xenografts (immunofluorescence): vs vehicle-treated xenografts; for increase in number of TUNEL-positive SCC cells compared to vehicle: intratumoral 2.5 nmol/50 μL, NCG mice, SCC13
# Method: Immunofluorescence was performed using an alexa-fluor488-conjugated secondary antibody (IgG mouse or rabbit) (Invitrogen) with 4′,6-diamidino-2-phenylindole (DAPI) (Vector Labs, Burlingame, Calif., USA) to identify nuclei. Cellular localization of immunohistochemistry signal was determined in a double-blinded manner. Slides were digitalized and fluorescence intensity was measured using Image analysis was performed using the Olympus VS120 Slide Scanner and Olyvia Analysis Software, respectively (Olympus, Tokyo, Japan).
# Groups of NCG mice (NOD CRISPR Prkdc Il2r gamma/NjuCrl) (Charles River, Malvern, Pa., USA) were injected s.c. with 5×10^5 SCC13 cells suspended in 1:1 mixture of 1×PBS:Matrigel (Corning, Corning, N.Y., USA). Once the tumors reached a volume of 150 mm^3, tumors were treated with either vehicle (50 μL 1×PBS) or 2.5 nmol/50 μL of the targeting peptide ES1P2. Tumors were injected directly with either vehicle or ES1P2 daily for 2 days or every other day for 2 weeks and then harvested for analysis 24 hours after the last treatment. Tumors were fixed overnight in 10% buffered formalin (Thermo Fisher) and then switched to 70% ethanol the following day. All procedures were performed in accordance with the guidance of Creighton University Institutional Animal Care and Use Committee.
# TUNEL (Terminal deoxynucleotidyl transferase dUTP nick end labeling) was carried out using Promega DeadEnd Fluorometric TUNEL system in accordance with the manufacturer's instructions (Promega). Cells were treated with DAPI (Vector Labs) to locate the nuclei within cells. […] Slides were digitalized and apoptotic nuclei counted using an Olympus VS120 Slide Scanner (Olympus).
# Immunostaining was performed using antibodies recognizing P-Akt (S473) (Thermo Fisher) and Survivin (Cell Signaling, Danvers, Mass., USA), with alexa-fluor488-conjugated secondary antibody (IgG rabbit) (Invitrogen) with 4′,6-diamidino-2-phenylindole (DAPI) (Vector Labs, Burlingame, Calif., USA) to identify the nuclei. Slides were digitalized and analyzed using an Olympus VS120 Slide Scanner (Olympus, Shinjuku, Tokyo, JPN).
# Groups of NCG mice (NOD CRISPR Prkdc Il2r gamma/NjuCrl) (Charles River, Malvern, Pa., USA) were injected s.c. with 5×10^5 human SCC13 cells suspended in 1:1 mixture of 1×PBS:Matrigel (Corning, Corning, N.Y., USA). Once the tumors reached 150 mm^3 in volume they were treated intratumorally with either vehicle (1× sterile PBS, pH, 7.5), pS, or pT (2.5 nmol/50 μL for each) daily for 2 days and then the mice were euthanized 24 hours after the second treatment. Tumors were fixed overnight in 10% neutral buffered formalin (Thermo Fisher) and then switched to 70% ethanol the following day before embedding and sectioning. All procedures were performed in accordance with the guidance of the Creighton University Institutional Animal Care and Use Committee.
# TUNEL (terminal uridine nick-end labelling) assays were carried out using the Promega DeadEnd Fluorometric TUNEL system in accordance with the manufacturer's instructions (Promega Corporation, Madison, Wis., USA). Cells were treated with 4′,6-diamidino-2-phenylindole (DAPI) to locate the nuclei within cells. Slides were scanned and analyzed using an Olympus VS120 Slide Scanner (Olympus).
compound,measurement,setting,value
"NCCCC[C@H](NC(=O)[C@H](Cc1c[nH]c2ccccc12)NC(=O)[C@H](Cc1ccc(O)cc1)NC(=O)[C@@H](N)Cc1c[nH]c2ccccc12)C(N)=O [ES1P2, Trp-Tyr-Trp-Lys-NH2] (H-WYWK-NH2)",apoptosis of SCC cells (Caspase-3/7),SCC12B.2 cells,increasing apoptosis to a statistically significant degree
same,number of TUNEL-positive SCC cells compared to vehicle,"[1]; intratumoral 2.5 nmol, 2 daily treatments",more than doubled
same,tumor volume compared to vehicle-treated xenografts,[1],decreased tumor growth; also recorded: reduced tumor volume
same,reduction of SCC growth compared to vehicle,"[1]; repeated intratumoral treatments of SCC xenografts, FIG. 1H/1I",approximately one-third
same,P-Akt (S473) levels in SCC xenografts (immunofluorescence),[1],decreased
same,Survivin levels in SCC xenografts (immunofluorescence),[1],decreased
"CSCC[C@H](NC(=O)[C@H](CCCNC(=N)N)NC(=O)[C@@H]1CCCN1C(=O)[C@H](C)NC(=O)[C@H](COP(=O)(O)O)NC(=O)[C@H](CC(N)=O)NC(=O)[C@H](CCC(N)=O)NC(=O)[C@H](CCCNC(=N)N)NC(=O)[C@H](CCC(N)=O)NC(=O)[C@@H](NC(C)=O)[C@@H](C)O)C(=O)N[C@@H](CC(C)C)C(=O)N[C@@H](CO)C(=O)N[C@@H](CO)C(=O)N[C@@H](CC(N)=O)C(N)=O [pS, Ac-Thr-Gln-Arg-Gln-Asn-Ser-(PO3^2−)-Ala-Pro-Arg-Met-Leu-Ser-Ser-Asn-NH2] (HELM PEPTIDE1{[ac].T.Q.R.Q.N.[O=C([C@H](COP(=O)(O)O)N[*:1])[*:2]].A.P.R.M.L.S.S.N.[am]}$$$$V2.0)",apoptosis of SCC cells (Caspase-3/7),SCC12B.2 cells,increased apoptosis
same,increase in number of TUNEL-positive SCC cells compared to vehicle,[1]; 2 daily treatments,25%
same,tumor volume compared to vehicle-treated xenografts,[1],decreased volume
same,P-Akt (S473) levels in SCC xenografts (immunofluorescence),[1],decreased
same,Survivin levels in SCC xenografts (immunofluorescence),[1],decreased
"CC(=O)N[C@@H](CCCNC(=N)N)C(=O)N[C@H](C(=O)N[C@@H](CCCCN)C(=O)N[C@@H](CO)C(=O)N[C@@H](CCCNC(=N)N)C(=O)N[C@H](C(=O)N[C@@H](Cc1c[nH]c2ccccc12)C(=O)N[C@@H](C)C(=O)NCC(=O)N[C@@H](CCC(=O)O)C(=O)N[C@@H](CCCCN)C(=O)N[C@@H](CO)C(=O)N[C@@H](CCCCN)C(=O)N[C@@H](CCCNC(=N)N)C(N)=O)[C@@H](C)OP(=O)(O)O)[C@@H](C)O [pT, Ac-Arg-Thr-Lys-Ser-Arg-Thr(PO3^2−)-Trp-Ala-Gly-Glu-Lys-Ser-Lys-Arg-NH2] (HELM PEPTIDE1{[ac].R.T.K.S.R.[C[C@@H](OP(=O)(O)O)[C@H](N[*:1])C(=O)[*:2]].W.A.G.E.K.S.K.R.[am]}$$$$V2.0)",apoptosis of SCC cells (Caspase-3/7),SCC12B.2 cells,increased apoptosis
same,increase in number of TUNEL-positive SCC cells compared to vehicle,[1]; 2 daily treatments,51%
same,tumor volume compared to vehicle-treated xenografts,[1],decreased volume
same,P-Akt (S473) levels in SCC xenografts (immunofluorescence),[1],decreased
same,Survivin levels in SCC xenografts (immunofluorescence),[1],decreased
